Common to all, as to assay type: in vivo
The subject of data set [1] is 2-3 month old male Sprague Dawley rats. Put plainly: Stereotypy behaviour (circling and head weaving) in the open field. As for the experimental part:
Vehicle treated animals received saline vehicle injections instead of GLYX-13 and ketamine injections. Animals were placed into the open field immediately after the final dose, and behaviour was analysed for 20 min. N=8-12.

Data set [2] concerns adult male C57BL/6 male mice. The data set is described as follows: Novel object recognition test (NOR), discrimination index. As to the method: The discrimination index is calculated using the following formula: (time spent exploring novel object−time spent exploring familiar object)/(total time spent in exploring both the novel and familiar objects).
Novel Object recognition Test (“NOR”) testing in mice was adapted from (Hashimoto K, Fujita Y, Shimizu E, Iyo M (2005). Phencyclidine-induced cognitive deficits in mice are improved by subsequent subchronic administration of clozapine, but not haloperidol. European journal of pharmacology 519(1-2): 114-117). See also, e.g., Rajagopal, et al., Current Pharmaceutical Design 2014, 20, 1. The NOR box is an open box made out of Plexiglas (52 cm L; 52 cm W; 31 cm H). The dimensions of the box we used for mice was identical to the one used for rats. The box was positioned approximately 30 cm above the floor. The walls of the box have white background, as opposed to the black background in the rat NOR studies. […] Three days prior to testing, mice were habituated to the empty NOR arena for an hour. The NOR test in mice is similar to that previously employed to study rat NOR except that the acquisition and retention trials were 10 min in duration, followed by an intertrial interval (ITI) of 24 hours during which the mice were returned to their home cages, whereas in rats, the acquisition and retention trials were three min in duration separated by a one min ITI (Horiguchi M, Meltzer HY (2012). The role of 5-HT1A receptors in phencyclidine (PCP)-induced novel object recognition (NOR) deficit in rats. Psychopharmacology 221(2): 205-215). We compared 3, 5, and 10 min times for acquisition and retention trial explorations and found 10 minutes to be optimal for reliable data collection. Both trials were recorded for blind scoring later on.
All data are expressed as mean±S.E.M. Exploration data were analysed by a two-way analysis of variance (ANOVA). This detected the main effect of drug treatment, the main effect of task, and the interaction between drug treatment and object exploration. When a significant effect was found, further analysis by a post hoc Student's t-test was performed to compare the times spent exploring the novel and familiar object. The primary endpoint was the discrimination index (DI). The DI (novel-familiar/novel+familiar) data were analysed using one-way ANOVA followed by the Bonferroni test when a significant effect was detected by the ANOVA.

Another data set concerns somatosensory cortex. The data set is described as follows: Attenuation in somatosensory cortex with GLYX-13 pre-treatment followed by ketamine (FIG. 4).

“Also recorded” adds a separate entry of the source. Peptide text beside a SMILES is read from it.

Regarding `CNC1(c2ccccc2Cl)CCCCC1=O` (stereo not shown) [ketamine, reference compound], the “Number of stereotypy behaviour (circling and head weaving), effect of ketamine” value in data set [1] (ketamine 10 mg/kg iv, open field, 20 min) is on record as “induced stereotypy”. Also, in data set [2] (ketamine 10 mg/kg sc, tested 20 min later, p<0.0001 vs vehicle group), the “Discrimination index (DI) in novel object recognition, effect of acute ketamine” value was “significant decrease in DI compared with the vehicle group”. Moreover, the “Discrimination index (DI) in novel object recognition, effect of chronic ketamine” value in data set [2] (ketamine 30 mg/kg IP twice daily for 7 days, then saline vehicle 1 hr before testing, p<0.001 vs vehicle group) is “significant decrease in DI compared with the vehicle group”.

For `CC(O)C(N)C(=O)N1CCCC1C(=O)N1CCCC1C(=O)NC(C(N)=O)C(C)O` (stereo not shown) [GLYX-13] (H-TPPT-NH2; configuration not given here), in data set [1] (GLYX-13 3 mg/kg iv 30 min before ketamine 10 mg/kg iv, behaviour analysed for 20 min), the “Number of stereotypy behaviour (circling and head weaving), inhibition of ketamine-induced stereotypy” value is listed as “inhibits ketamine (10 mg/kg iv) induced stereotypy”. Besides, the “Discrimination index (DI) in novel object recognition, reversal of acute ketamine-induced impairment” value in data set [2] (GLYX-13 3 mg/kg iv 30 min before ketamine 10 mg/kg sc, tested 20 min later, p<0.01 vs ketamine group) was “reverses acute ketamine (10 mg/kg sc) induced impairment in novel object recognition; also recorded: significant reversal in DI compared with ketamine group”. Moreover, the “Discrimination index (DI) in novel object recognition, reversal of chronic ketamine-induced impairment” value in data set [2] (mice pre-treated with ketamine 30 mg/kg IP twice daily for 7 days, GLYX-13 1 mg/kg IV 1 hr before testing, p<0.001 vs ketamine group) is reported as “reverses chronic ketamine-induced impairment in novel object recognition; also recorded: significant reversal in DI compared with ketamine group”. Also, the “Discrimination index (DI) in novel object recognition, reversal of chronic PCP-induced impairment” value in data set [2] (mice pretreated with PCP 10 mg/kg IP twice daily for 7 days, GLYX-13 1 mg/kg IV 1 hr before testing, p<0.001 vs PCP group) is “reverses chronic phencyclidine-induced impairment in novel object recognition; also recorded: significant reversal in DI compared with PCP group”. Moreover, the “Attenuation in somatosensory cortex” value in the data set with somatosensory cortex (pre-treatment with 3 mpk GLYX-13 followed by ketamine) and in the data set on somatosensory cortex (pre-treatment with 30 mpk GLYX-13 followed by ketamine) was “significant attenuation” throughout.

Take `c1ccc(C2(N3CCCCC3)CCCCC2)cc1` [PCP, phencyclidine, reference compound]: the “Discrimination index (DI) in novel object recognition, effect of chronic PCP” value in data set [2] (PCP 10 mg/kg IP twice daily for 7 days, then saline vehicle 1 hr before testing, p<0.001 vs vehicle group) is reported as “significant decrease in DI compared with the vehicle group”.

The record behind these values is patent publication US20170072005A1, “COMBINATIONS OF NMDAR MODULATING COMPOUNDS” (NORTHWESTERN UNIVERSITY, priority 2014, published 2017).
